We go through 2 compounds from patent US12492182B2, “Hydroxytriazine compounds and pharmaceutical use thereof” (Japan Tobacco Inc., priority 2015, dated 2025).

Molecules are shown by their SMILES.

The nature of data set [1]: Measurement of solubility in Britton-Robinson buffer solution (pH 8.5) containing 0.5 W/V % polysorbate 80. The class given is physicochemical. Conditions: Britton-Robinson buffer pH 8.5 containing 0.5 W/V % polysorbate 80, 20° C., 18 hr. How it is done:
Experimental Example 5: Measurement of Solubility
(2) Britton-Robinson Buffer Solution (pH 8.5) Containing 0.5 W/V % Polysorbate 80
The test article was weighted in glass microtube, and dispersed in Britton-Robinson buffer solution (pH 8.5, 1.5 mL) containing 0.5 W/V % polysorbate 80 to prepare a suspension. The suspension was shaked at 20° C. for 18 hr, and filtered through a membrane filter (0.45 μm), and the filtrate was used as a sample.
(3) Preparation of Standard Solution and Sample Solution, and Measurement of Solubility
Sample solution was prepared by appropriately diluting sample with a mixture of water/acetonitrile (1:1). Standard solution was prepared by precisely weighting the test article, and then diluting the test article with a mixture of water/acetonitrile (1:1). The standard solution and sample solution were analyzed by liquid chromatography, and the test article content of the sample solution was calculated according to external standard method, based on which the solubility was determined.

The next data set concerns A549 cell. The data set can be described thus: Evaluation of PGE2 production inhibitory action using A549 cell (IL-1β stimulated). The data set is classed as cell-based, human. Conditions: Homo sapiens, A549, A549 cell, recombinant human IL-1β stimulation; read-out: cell PGE2 production inhibitory activity (IC50 value). A digest of the protocol:
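A549 cells (human lung cancer) in F-12K with 2% FBS were preincubated with test article for 30 min, then stimulated with IL-1β (1 ng/mL final) for 18 hr at 37 °C; 0.5% DMSO final. Supernatant PGE2 was measured by HTRF against a standard curve; inhibition is relative to vehicle and unstimulated blank wells.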

The next data set addresses T1, human mPGES-1 (Homo sapiens, UniProt O14684).
T1 construct: made in house; host or cells: Chinese hamster ovary-derived cells (FreeStyle CHO-S), transient transfection of pcDNA3.1(+)/human mPGES-1; microsome fraction
T1 sequence (O14684 1-152): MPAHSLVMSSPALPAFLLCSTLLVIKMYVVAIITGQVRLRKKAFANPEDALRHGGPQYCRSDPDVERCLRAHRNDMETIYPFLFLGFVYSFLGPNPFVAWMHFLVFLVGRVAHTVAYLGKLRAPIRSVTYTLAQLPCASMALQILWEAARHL
The data set can be described thus: Evaluation of human mPGES-1 enzyme inhibitory activity (HTRF measurement of PGE2). The class given is biochemical. Conditions: IC50 value; microsome fraction of CHO-S cells expressing human mPGES-1, PGH2 substrate, PGE2 by HTRF; read-out: humans mPGES-1 enzyme inhibitory activity. A digest of the protocol: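 Enzyme source was a microsome fraction from CHO-S cells transfected with human mPGES-1, diluted to 5 μg/mL protein in reduced GSH (12.5 mmol/L KPB), preincubated with compound for 10 min at room temperature with 2% final DMSO. Reaction started with PGH2 and run 45 seconds at room temperature. PGE2 measured by HTRF.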
For orientation: TR-FRET usually uses a lanthanide donor and a delayed reading to cut background.

Consider `CC(C)(C)c1cccc(-c2nc(O)nc(-c3cc(CNC(=O)C4(C(F)(F)F)CCCCC4)ccc3Cl)n2)c1` [Example 107, 1-trifluoromethylcyclohexanecarboxylic acid 3-[4-(3-tert-butylphenyl)-6-hydroxy-1,3,5-triazin-2-yl]-4-chlorobenzylamide], for which the “0.5% polysorbate 80 solubility (%) at pH 8.5” value in data set [1] came to 0.032%. Also, the IC50 amounted to 2.1 nM in the data set with A549 cell and 2.6 nM at human mPGES-1.

`CCC[C@@H](C)Oc1ccc(-c2nc(O)nc(-c3cc(CNC(=O)C(CC)(CC)OC)ccc3Cl)n2)cn1` [Example 79, 2-ethyl-N-(4-chloro-3-{4-hydroxy-6-[6-((R)-1-methylbutoxy)pyridin-3-yl]-1,3,5-triazin-2-yl}benzyl)-2-methoxybutanamide]: in data set [1], the “0.5% polysorbate 80 solubility (%) at pH 8.5” value is on record as 0.157%. Further, the IC50 came to 2.6 nM in the data set with A549 cell and 4.6 nM at human mPGES-1.
